The results in this text go back to patent US6875760B2 (Novo Nordisk A/S, priority 1999, dated 2005).

For the assay, the target named is T1, human glucagon receptor (Homo sapiens, UniProt P47871).
T1 construct: expressed in transfected cells; host or cells: BHK (baby hamster kidney) cells
Briefly: Glucagon Binding Assay (III). To be noted: BHK cell membranes, WGA SPA beads, 125I-glucagon. Put shortly: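 Membranes from BHK cells transfected with the human receptor, prepared at 4 °C, were used in a WGA-bead scintillation proximity binding format. Plates were shaken for 4 hours, left to settle 8–48 hours and then counted. Non-specific binding was defined with 500 nM glucagon.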

Where [1] appears, read: read-out: Glu Bd Assay (III) IC50.

SMILES strings stand for the structures. Read-outs that look alike come from different tables or passages of the source.

T1 sequence (P47871 26-477): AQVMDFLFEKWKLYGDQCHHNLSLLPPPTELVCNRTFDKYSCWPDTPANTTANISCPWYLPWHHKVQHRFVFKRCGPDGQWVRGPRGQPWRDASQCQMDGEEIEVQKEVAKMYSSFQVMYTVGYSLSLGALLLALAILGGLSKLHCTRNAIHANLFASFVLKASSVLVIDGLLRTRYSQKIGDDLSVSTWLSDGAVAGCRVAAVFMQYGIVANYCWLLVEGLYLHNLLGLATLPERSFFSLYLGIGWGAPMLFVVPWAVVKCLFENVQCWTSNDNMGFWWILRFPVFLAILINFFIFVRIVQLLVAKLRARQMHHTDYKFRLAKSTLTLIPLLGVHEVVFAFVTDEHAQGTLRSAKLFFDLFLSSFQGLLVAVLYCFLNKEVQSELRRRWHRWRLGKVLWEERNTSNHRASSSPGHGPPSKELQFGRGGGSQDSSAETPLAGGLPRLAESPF

Broadly, the IC50 is the midpoint of a concentration-inhibition curve. Consider `CC(C)(C)[C@H]1CC[C@H](N(Cc2ccc(C(=O)NCCC(=O)O)cc2)C(=O)Nc2ccc(OCC3CC3)cc2)CC1` [Example 241, 3-{4-[1-(trans-4-tert-Butylcyclohexyl)-3-(4-cyclopropylmethoxyphenyl)ureidomethyl]benzoylamino}propionic acid], for which the IC50 (Glu Bd Assay (III) IC50 (nM)) amounted to 140 nM. Same read-out and setting: then `CC(C)(C)[C@H]1CC[C@H](N(Cc2ccc(C(=O)NCCC(=O)O)cc2)C(=O)Nc2ccc(OC(F)(F)F)cc2Br)CC1` [Example 242, 3-{4-[3-(2-Bromo-4-trifluoromethoxyphenyl)-1-(trans-4-tert-butylcyclohexyl)ureidomethyl]benzoylamino}propionic acid], with 153 nM; and `CC(C)(C)[C@H]1CC[C@H](N(Cc2ccc(C(=O)NCCC(=O)O)cc2)C(=O)Nc2ccccc2)CC1` [Example 243, 3-{4-[1-(trans-4-tert-Butylcyclohexyl)-3-phenylureidomethyl]benzoylamino}propionic acid], with 1090 nM.

Consider `O=C(O)CCNC(=O)c1ccc(CN(C(=O)Nc2ccc(OC(F)(F)F)cc2)C2CCC(Oc3ccccc3)CC2)cc1` (centres unmarked) [Example 244, 3-{4-[1-(4-Phenoxycyclohexyl)-3-(4-trifluoromethoxyphenyl)ureidomethyl]benzoylamino}propionic acid], for which the IC50 under setting [1] turned out to be 528 nM. Turning to `CCOC(=O)N1CCC(NC(=O)N(Cc2ccc(C(=O)NCCC(=O)O)cc2)[C@H]2CC[C@H](C(C)(C)C)CC2)CC1` [Example 245, 4-{3-(trans-4-tert-Butylcyclohexyl)-3-[4-(2-carboxyethylcarbamoyl)benzyl]ureido}piperidine-1-carboxylic acid ethyl ester], the IC50 under setting [1] was found to be 4050 nM. The same measure, in the same setting: then `CC(C)(C)C1CCC(N(Cc2ccc(C(=O)NCCC(=O)O)cc2)C(=O)Nc2ccc(Oc3ccccc3)nc2)CC1` (centres unmarked) [Example 246, 3-{4-[1-(4-tert-Butylcyclohexyl)-3-(6-phenoxypyridin-3-yl)ureidomethyl]benzoylamino}propionic acid], with 146 nM.

As for `CC(C)(C)[C@H]1CC[C@H](N(Cc2ccc(C(=O)NCCC(=O)O)cc2)C(=O)Nc2ccc(C#N)cc2OC(F)(F)F)CC1` [Example 247, 3-{4-[1-(trans-4-tert-Butylcyclohexyl)-3-(4-cyano-2-trifluoromethoxyphenyl)ureidomethyl]benzoylamino}propionic acid], under “Glu Bd Assay (III) IC50 (nM)”, the IC50 was determined as 215 nM. For `O=C(O)CCNC(=O)c1ccc(CN(C(=O)Nc2ccc(OC(F)(F)F)cc2)C2CCC(=C3CC3)CC2)cc1` (centres unmarked) [Example 248, 3-{4-[1-(4-Cyclopropylidenecyclohexyl)-3-(4-trifluoromethoxyphenyl)ureidomethyl]benzoylamino}propionic acid], the concentration for half-maximal inhibition (IC50) under setting [1] came to 571 nM. The same measure, in the same setting: with `O=C(O)CCNC(=O)c1ccc(CN(C(=O)Nc2ccc(OC(F)(F)F)cc2)C2CCC(C3CC3)CC2)cc1` (centres unmarked) [Example 249, 3-{4-[1-(4-Cyclopropylcyclohexyl)-3-(4-trifluoromethoxyphenyl)ureidomethyl]benzoylamino}propionic acid] the figure was 320 nM. Take `CC(C)(C)[C@H]1CC[C@H](N(Cc2ccc(C(=O)NCCC(=O)O)cc2)C(=O)Nc2ccc(OCC3CC3)cc2C(F)(F)F)CC1` [Example 250, 3-{4-[1-(trans-4-tert-Butylcyclohexyl)-3-(4-cyclopropylmethoxy-2-trifluoromethylphenyl)ureidomethyl]benzoylamino}propionic acid]: the concentration for half-maximal inhibition (IC50) (Glu Bd Assay (III) IC50 (nM)) is 182 nM. On to `CC(C)(C)[C@H]1CC[C@H](N(Cc2ccc(C(=O)NCCC(=O)O)cc2)C(=O)Nc2ccc(OC(F)(F)F)c(C#N)c2)CC1` [Example 251, 3-{4-[1-(trans-4-tert-Butylcyclohexyl)-3-(3-cyano-4-trifluoromethoxyphenyl)ureidomethyl]benzoylamino}propionic acid], for which the IC50 under setting [1] amounted to 56 nM.

For `CC(C)(C)C1CCC(N(Cc2ccc(C(=O)NCCC(=O)O)cc2)C(=O)Nc2cccc(S(C)(=O)=O)c2)CC1` (centres unmarked) [Example 252, 3-{4-[1-(4-tert-Butylcyclohexyl)-3-(3-methylsulfonylphenyl)ureidomethyl]benzoylamino}propionic acid], the IC50 under setting [1] was determined as 1320 nM. With `CC(C)(C)[C@H]1CC[C@H](N(Cc2ccc(C(=O)NCCC(=O)O)cc2)C(=O)Nc2cc(-c3ccccc3)n[nH]2)CC1` [Example 253, 3-{4-[1-(4-trans-tert-Butylcyclohexyl)-3-(5-Phenyl-2H-pyrazol-3-yl)ureidomethyl]benzoylamino}propionic acid], the IC50 under setting [1] was found to be 1170 nM. Same read-out and setting: then `CCOC(=O)c1ccc2nc(NC(=O)N(Cc3ccc(C(=O)NCCC(=O)O)cc3)[C@H]3CC[C@H](C(C)(C)C)CC3)sc2c1` [Example 254, 2-{3-(4-trans-tert-Butylcyclohexyl)-3-[4-(2-carboxyethylcarbamoyl)benzyl]ureido}benzothiazole-6-carboxylic acid ethyl ester], with 266 nM.

Turning to `CC(C)(C)[C@H]1CC[C@H](N(Cc2ccc(C(=O)NCCC(=O)O)cc2)C(=O)Nc2cc(Cl)cc(Cl)c2)CC1` [Example 255, 3-{4-[1-(trans-4-tert-Butylcyclohexyl)-3-(3,5-dichlorophenyl)ureidomethyl]benzoylamino}propionic acid], the IC50 (Glu Bd Assay (III) IC50 (nM)) turned out to be 80 nM. For `N#Cc1cccc(NC(=O)N(Cc2ccc(C(=O)Nc3nn[nH]n3)cc2)c2ccc(C3CCCCC3)cc2)c1` [Example 256, 4-[3-(3-Cyanophenyl)-1-(4-cyclohexylphenyl)ureidomethyl]-N-(2H-tetrazol-5-yl)benzamide], the IC50 under setting [1] was 75 nM.

Consider `CC(C)(C)c1ccc(N(Cc2ccc(C(=O)Nc3nn[nH]n3)cc2)C(=O)Nc2ccc3ncsc3c2)cc1` [Example 257, 4-[3-Benzothiazol-6-yl-1-(4-tert-butylphenyl)ureidomethyl]-N-(2H-tetrazol-5-yl)benzamide], for which the IC50 under setting [1] was 684 nM. Same read-out and setting: with `O=C(Nc1nn[nH]n1)c1ccc(CN(C(=O)Nc2ccc3c(c2)S(=O)(=O)CC3)c2ccc(C3CCCCC3)cc2)cc1` [Example 258, 4-[1-(4-Cyclohexylphenyl)-3-(1,1-dioxo-2,3-dihydro-1H-1-benzo[b]thiophen-6-yl)ureidomethyl]-N-(2H-tetrazol-5-yl)benzamide] the figure was 773 nM; with `CC(C)(C)c1ccc(N(Cc2ccc(C(=O)Nc3nn[nH]n3)cc2)C(=O)Nc2ccc3c(c2)S(=O)(=O)CC3)cc1` [Example 259, 4-[1-(4-tert-Butylphenyl)-3-(1,1-dioxo-2,3-dihydro-1H-benzo[b]thiophen-6-yl)ureidomethyl]-N-(2H-tetrazol-5-yl)benzamide], 1690 nM.

On to `CS(=O)(=O)c1ccc(F)c(NC(=O)N(Cc2ccc(C(=O)Nc3nn[nH]n3)cc2)c2ccc(C3CCCCC3)cc2)c1` [Example 260, 4-[1-(4-Cyclohexylphenyl)-3-(2-fluoro-5-methylsulfonylphenyl)ureidomethyl]-N-(2H-tetrazol-5-yl)benzamide], for which the IC50 under setting [1] is 149 nM. As for `Cc1ccc(S(C)(=O)=O)cc1NC(=O)N(Cc1ccc(C(=O)Nc2nn[nH]n2)cc1)c1ccc(C2CCCCC2)cc1` [Example 261, 4-[1-(4-Cyclohexylphenyl)-3-(5-methylsulfonyl-2-methylphenyl)ureidomethyl]-N-(2H-tetrazol-5-yl)benzamide], under setting [1], the IC50 worked out at 302 nM. On the same count and under the same terms, then `O=C(Nc1nn[nH]n1)c1ccc(CN(C(=O)Nc2cc(F)cc(C(F)(F)F)c2)c2ccc(C3CCCCC3)cc2)cc1` [Example 262, 4-[1-(4-Cyclohexylphenyl)-3-(3-fluoro-5-trifluoromethylphenyl)ureidomethyl]-N-(2H-tetrazol-5-yl)benzamide], with 18 nM; and `CC(C)(C)c1ccc(N(Cc2ccc(C(=O)Nc3nn[nH]n3)cc2)C(=O)Nc2cc(Br)cc(C(F)(F)F)c2)cc1` [Example 263, 4-[3-(3-Bromo-5-trifluoromethylphenyl)-1-(4-tert-butylphenyl)ureidomethyl]-N-(2H-tetrazol-5-yl)benzamide], with 16 nM.

On to `O=C(Nc1nn[nH]n1)c1ccc(CN(C(=O)Nc2cc(Br)cc(C(F)(F)F)c2)c2ccc(C3CCCCC3)cc2)cc1` [Example 264, 4-[3-(3-Bromo-5-trifluoromethylphenyl)-1-(4-cyclohexylphenyl)ureidomethyl]-N-(2H-tetrazol-5-yl)benzamide], for which, under setting [1], the IC50 turned out to be 9 nM. Still for that read-out and setting: with `CCN(c1ccccc1)S(=O)(=O)c1cccc(NC(=O)N(Cc2ccc(C(=O)NCCC(=O)O)cc2)c2ccc(C3CCCCC3)cc2)c1` [Example 265, 3-(4-{1-(4-Cyclohexylphenyl)-3-[3-(ethylphenylsulfamoyl)phenyl]ureidomethyl}benzoylamino)propionic acid] the figure was 30 nM; with `CN(c1ccccc1)S(=O)(=O)c1cccc(NC(=O)N(Cc2ccc(C(=O)Nc3nn[nH]n3)cc2)c2ccc(C3CCCCC3)cc2)c1` [Example 266, 4-{1-(4-Cyclohexylphenyl)-3-[3-(methylphenylsulfamoyl)phenyl]ureidomethyl}-N-(2H-tetrazol-5-yl)benzamide], 15 nM; with `O=C(Nc1nn[nH]n1)c1ccc(CN(C(=O)Nc2cccc(S(=O)(=O)N3CCc4ccccc43)c2)c2ccc(C3CCCCC3)cc2)cc1` [Example 267, 4-{1-(4-Cyclohexylphenyl)-3-[3-(2,3-dihydroindole-1-sulfonyl)phenyl]ureidomethyl}-N-(2H-tetrazol-5-yl)benzamide], 86 nM. On the same count and under the same terms, with `O=C(Nc1nn[nH]n1)c1ccc(CN(C(=O)Nc2cc(C(F)(F)F)cc(C(F)(F)F)c2)c2ccc(C3=CCCCC3)cc2)cc1` [Example 268, 4-[3-(3,5-Bis-trifluoromethylphenyl)-1-(4-cyclohex-1-enylphenyl)ureidomethyl]-N-(2H-tetrazol-5-yl)benzamide] the figure was 21 nM. Still for that read-out and setting: then `O=C(Nc1nn[nH]n1)c1ccc(CN(C(=O)Nc2cc(Br)cc(C(F)(F)F)c2)c2ccc(C3=CCCCC3)cc2)cc1` [Example 269, 4-[3-(3-Bromo-5-trifluoromethylphenyl)-1-(4-cyclohex-1-enylphenyl)ureidomethyl]-N-(2H-tetrazol-5-yl)benzamide], with 38 nM.
